The values below are quoted from earlier work in patent publication US6753013B1, “Pharmaceutical composition” (Leo Pharmaceutical Products, Ltd. A/S, priority 1999, dated 2004).

For this data set, the system named is psoriatic skin. The settings on record: simultaneous application of a steroid, such as betamethasone, onto psoriatic skin.

For `C=C1/C(=C\C=C2/CCC[C@]3(C)[C@@H]([C@H](C)/C=C/[C@@H](O)C4CC4)CC[C@@H]23)C[C@@H](O)C[C@@H]1O` [calcipotriol], the “Skin irritative side effects” value is reported as “alleviated”.
